This note sets out measurements from a melting point compilation (Tetko et al.; mined from patent text by program, amines drawn as free bases though some values may be those of a salt).

As to `CC(=O)ONC(=N)c1ccc(-c2ccc(-c3ccc(C(=N)NOC(C)=O)cc3C)o2)nc1`, the melting point (commonly the temperature, or range, at which the solid turns liquid) fell in the range of 226 to 229 °C.

As for `CC1Nc2ccc(-c3csc(C#N)c3)cc2C2(CCCC2)O1` (configuration not stated), the melting point lay in the range of 103 to 104 °C.

`COc1cc(CC2NC(=O)NC2=O)cc(OC)c1OC` (configuration not stated) gave a melting point of 180 to 181 °C.

For the compound `COc1nc(C)nc(NC(=O)NS(=O)(=O)Cc2ccccc2-c2nnc(SC)o2)n1`, the melting point is 175 to 177 °C.

`Oc1c2c(nn1-c1nc3ccccc3s1)CCc1ccccc1-2`: the melting point fell in the range of 234 to 235 °C.

Compound `CC(=O)OCC(=O)Nc1nc2c(Oc3cc(-c4ccc(C(F)(F)F)cc4)ncn3)cccc2s1` came in with a melting point of 119 to 138 °C.

Compound `O=C(CCCCSc1nc(-c2ccccc2)c(-c2ccccc2)[nH]1)NCCOCCO` displayed a melting point of 176 to 178 °C.

`Cc1nc(C=Cc2nc3ccc(F)cc3c(=O)n2-c2cccnc2C)cs1` returned a melting point of 223 to 224 °C.

`CNc1c(F)cc2c(=O)c(C(=O)O)cn(-c3ccc(F)c(N)c3)c2c1Cl` yielded a melting point of 162 to 166 °C.

Compound `Cn1ncnc1COc1nc2c(cc1-c1cccs1)nnn2-c1ccccc1F` yielded a melting point of 160 to 162 °C.

`COC(=O)c1ccc(N=Cc2ccc(OC)c(C34CC5CC(CC(C5)C3)C4)c2)cc1` came in with a melting point of 180 to 182 °C.

`CC(C)(O/N=C(\C(=O)Sc1nc2ccccc2s1)c1csc(N)n1)C(=O)OC(c1ccccc1)c1ccccc1`: the melting point turned out to be 110 °C.

`CC(Cl)(Cl)C(NC(=O)c1cccc(Cl)c1)Nc1c(Nc2cccnc2)c(=O)c1=O` (configuration not stated) showed a melting point of 202 to 204 °C.

With `COc1ccc(C=Cc2ccc(CBr)cc2)c(Cl)c1`, the melting point lay in the range of 99 to 100 °C.

With `O[C@@H](CNCCOc1ccc2cc(-c3ccon3)oc2c1)COc1ccccc1`, the melting point is 107 to 110 °C.

`COc1ccc(C(=CC(=O)N2CCOCC2)c2ccc(Cl)nc2)cc1OC` came in with a melting point of 154 to 160 °C.

As for `CSc1ncc(S(=O)(=O)NC(=O)NC(C)C)c(Nc2cccc(C)c2)n1`, the melting point was determined as 160 °C.

The compound `CC(C)(C)OCCOCCn1cc(C(=O)NCc2ccc(Cl)cc2)c(=O)c2cc(CN3CCOCC3)ccc21` displayed a melting point of 130 to 132 °C.

Compound `FC(F)(F)C(F)(F)C(F)(F)c1nc(-c2ccc(OCCCn3ccnc3)cc2)no1` gave a melting point of 60 to 60.5 °C.

With `O=c1occ(-c2ccccc2)n1-c1ccc(F)cc1`, the melting point lay in the range of 145 to 147 °C.

`Cc1ccc(S(=O)(=O)OCC2CC(OS(=O)(=O)c3ccc(C)cc3)CN2S(=O)(=O)c2ccc(C)cc2)cc1` (configuration not stated) came in with a melting point of 134 to 135 °C.

With `COc1cccc(OC(=O)c2ncn3c2[C@@H]2CCCN2C(=O)c2c(Cl)cccc2-3)c1`, the melting point is 184 to 185 °C.

For `Cc1oc(-c2ccccc2)nc1COc1ccc(/C=C/C=O)cn1`, the melting point fell in the range of 147 to 148 °C.

The compound `CC(C)(C)c1ccc(-n2cnnc2C(F)(F)F)cc1` returned a melting point of 134 °C.

For the compound `CCOC(=O)CSc1nc(C(C)(C)C)n[nH]1`, the melting point stood at 93 °C.

`FC(F)(F)c1cc(Cl)c(-n2cc(C3CC3(Br)Br)nn2)c(Cl)c1` (configuration not stated) returned a melting point of 156 to 158 °C.

In the case of `CCOC(=O)CCCCCOc1ccc(Nc2ccncc2)cc1`, the melting point fell in the range of 104 to 106 °C.

`CCCCCCCC(O)C(O)Cc1cc(C(N)=O)ccc1C(N)=O` (configuration not stated) came in with a melting point of 118 °C.

Regarding `COc1ccc2[nH]cc(C)c2c1OCc1ccccc1`, the melting point was 60 to 61 °C.

`CC(C(=O)O)c1cccc(Sc2ccccc2Cl)c1O` (configuration not stated) displayed a melting point of 143 to 145 °C.

`Cn1c(=O)c2ccccc2n(Cc2ccc(F)cc2)c1=N` showed a melting point of 135 to 137 °C.

In turn, `CC(C)NC(=O)c1ccn2nc(-c3ccccc3)c(-c3ccc(=O)n(C(C)C)n3)c2c1` gave a melting point of 230 to 232 °C.

For the compound `Cc1cc2nc(Cl)cc(N)c2[nH]1`, the melting point was found to be 270 °C.

In turn, `C[C@H](NC(=O)c1c(CBr)c(-c2ccccc2)nc2ccccc12)C1CCCCC1` showed a melting point of 182 to 184 °C.

On to `Fc1cc(F)c(-c2ccccc2)c(F)c1F`, for which the melting point was 86 to 88 °C.

Compound `N#Cc1ccc(-c2ccc(-c3ccc(-c4ccc(C#N)cc4)o3)o2)cc1` returned a melting point of 298 to 299 °C.

In turn, `CCc1nc2c(N)nc3ccc(OCc4ccccc4)cc3c2n1C` showed a melting point of 238 to 239 °C.

The compound `COC(=O)[C@H](Cc1ccc(CC(=O)O)c(C2SCCS2)c1)NC(C)=O` gave a melting point of 113 to 119 °C.

`COc1cc(C(=O)NS(=O)(=O)c2ccccc2)ccc1Cc1nn(C)c2ccc(NC(=O)OC3CCCC3)cc12` had a melting point of 145 °C.

The compound `OC(Cn1c(-c2ccc(Cl)cc2)nc2cccnc21)c1ccccc1` (configuration not stated) registered a melting point of 166 to 168 °C.

For `COc1ccc2c(CC(=O)O)c(C(=O)c3ccc(Cl)cc3)[nH]c2c1`, the melting point came to 193 °C.

Compound `CCC1=C(C)C(=O)NC1=CBr` yielded a melting point of 250 to 251 °C.

As to `CCCCCS(=O)(=O)NC(=O)CCc1cc(OCCCC)nn1Cc1ccc(C(F)(F)F)cc1Cl`, the melting point lay in the range of 131 to 133 °C.

In the case of `CC(C)(CCP(=O)(O)O)c1ccc(O)cc1`, the melting point was 192 to 195 °C.

`CCCSc1c2ccccc2nc2c1c(C)nn2-c1ccccn1`: the melting point fell in the range of 91 to 93 °C.

For `CCn1c(=O)n(C2CCN(C(C)(C)CCCN3C(=O)c4ccccc4S3(=O)=O)CC2)c2ccccc21`, the melting point was in the range of 182 to 185 °C.

As for `O=c1[nH]c2cc(Cl)c(Cl)cc2[n+]([O-])c1-c1ccccc1`, the melting point was in the range of 300 to 302 °C.

Compound `COc1ccc(CNc2nc(N)n3nc(-c4ccco4)nc3n2)cc1` came in with a melting point of 238 to 239 °C.

Regarding `CCC(=O)OCC1OC(n2c(Cl)c(C=O)c3cc(Cl)c(Cl)cc32)C(O)C1O` (configuration not stated), the melting point was 139 to 140 °C.

The compound `CC(C)(C)OC(=O)c1ncn2c1[C@@H]1CCCN1C(=O)c1c-2ccc(N)c1Br` displayed a melting point of 245 to 246 °C.

`O=Cc1ccc(N(c2ccccc2)c2ccccc2)c2ccccc12` came in with a melting point of 107 to 110 °C.

In the case of `CCC1(CC)c2cc(-c3nc4ccccc4s3)ccc2-c2ccc(N(c3ccc(Oc4ccc(N)cc4)cc3)c3ccc(Oc4ccc(N)cc4)cc3)cc21`, the melting point was in the range of 192 to 194 °C.

For `Fc1cc(Cl)c(OCC2=CCCOC2)cc1-n1nc2c(c1Cl)CCCC2`, the melting point lay in the range of 90 to 92 °C.

In turn, `COc1ccccc1CN1Cc2cc(OC)c(OCc3ccccc3)cc2C(OC)C1` (configuration not stated) had a melting point of 101 to 102 °C.

In turn, `NC(=S)CCc1ccc([N+](=O)[O-])cc1` gave a melting point of 157 to 158 °C.

Regarding `N#Cc1c(-c2cccc(N)c2)cc(-c2ccccc2O)nc1NC(=O)c1ccccc1`, the melting point lay within 259 to 261 °C.

Compound `C=CCc1cc(C(C)=O)c(O)cc1OCCCCC(=O)O` had a melting point of 110 to 111 °C.

`CCCCCCCCCCCCCCC(=O)NC1CC(C)(C)N(CC#N)C(C)(C)C1` came in with a melting point of 101 °C.

Compound `O=C1NC(=O)c2c1c(-c1ccccc1Cl)cc1c2c2cc(O)ccc2n1CCCc1nnn[nH]1` showed a melting point of 269 to 272 °C.

Compound `O=C(CS(=O)(=O)c1ccccc1)NNC(=O)N1Cc2ccccc2Oc2ccc(Cl)cc21` yielded a melting point of 180 to 183 °C.

`N#Cc1ccc(-c2ncc(Br)cn2)cc1` gave a melting point of 222 °C.

`CC1(C(=O)NCCc2cccs2)CC1` gave a melting point of 86 to 88 °C.
